Results taken from patent US10933074B2, “Methods for improving the gastrointestinal tolerance of food and beverage products comprising sweet, low-digestible carbohydrates” (Tate & Lyle Ingredients Americas LLC, priority 2015, dated 2021).

System: volunteers
Set-up: species or system human
Details: in vivo
Procedure: In this Example, subjects tested 4 different beverages, consumed in the morning with at least one week washout between test days. The beverages were consumed on an empty stomach, and there was instruction for subjects to wait 2 hours before having any other food. The primary outcome was the total gastrointestinal symptom scores over 24-hours for loose stool GI symptom derived from a GI symptoms rating diary. The 4 test beverages (8 oz./236.6 ml) were flavoured with a strawberry mix and contained: 1) 25 g of D-allulose; 2) 25 g of D-allulose and 25 g of D-glucose; 3) 25 g of D-allulose and 1 g of beta-glucan fiber; or 4) 25 g of sucrose. […] On the day of the test, the subjects followed the below set of instructions: • 1. Testing start times begin when you start consuming the drink; record date and time you begin on the diary. • 2. Consume the test drink at the same time each week. • a. Consume the entire drink 8 oz. (236.6 ml) drink in under 15 minutes. • b. Refill the drink container with water and consume as a chaser. • c. You may have additional water after 60 minutes as desired. • 3. Record GI symptom scores at 2, 4 and 24-hours after starting drink consumption. • 4. You may eat a snack or breakfast 2 hours after the test drink. • 5. Record all bowel movements and the Bristol Stool type during the 24-hour observation period. • 6. Resume normal food consumption for the day; however avoid foods which you know may cause gastric upset or gas for the 24-hour observation period. […] The Bristol Stool test scores were scored from 1-7. […]

O=C(CO)[C@H](O)[C@H](O)[C@H](O)CO [D-allulose]
number of people reporting symptoms: greatest
order of softer stools: allulose>allulose+beta-glucan>allulose+D-glucose>sucrose
stool softening (Bristol Stool test score, 24 hour average): softening effect
